Data: article PMC6792352, “Limited Chemical Structural Diversity Found to Modulate Thyroid Hormone Receptor in the Tox21 Chemical Library” (Environmental Health Perspectives, 2019)
Structures can show the parent of a compound that is named as a salt.

Assay: in vitro
Conditions: rat, gh3-tre-luc cells, AC50 (uM) modified / 1000
With `CCOC(=O)CC(=O)c1cc(F)c(Cl)nc1Cl` [Ethyl 2,6-dichloro-5-fluoro-?-oxo-3-pyridinepropionate] the CC50 at 24 h was > 90 µM. With `CC/C=C(\C(=O)N[C@@H]1C(=O)N2C(C(=O)OCOC(=O)C(C)(C)C)=C(COC(N)=O)CS[C@H]12)c1csc(N)n1` [Cefcapene pivoxil hydrochloride] the CC50 at 24 h was > 50 µM. `COc1ccc(C[C@H](N)C(=O)N[C@H]2[C@@H](O)[C@H](n3cnc4c(N(C)C)ncnc43)O[C@@H]2CO)cc1` [Puromycin dihydrochloride] gave a CC50 at 24 h of 11.2 µM. With `CCCCC(CC)COCC1CO1` (stereo not shown) [2-Ethylhexyl glycidyl ether] the CC50 at 24 h was > 90 µM. In the case of `CC(C)=CC=O` [3-Methylbut-2-enal], the CC50 at 24 h is reported as > 100 µM. In the case of `Nc1ccc(F)cc1` [4-Fluoroaniline], the CC50 at 24 h is reported as > 100 µM. With `COc1ccc2nc(N)sc2c1` [2-Amino-6-methoxybenzothiazole] the CC50 at 24 h was > 90 µM. `C=CCN1CC[C@]23CCCC[C@H]2[C@H]1Cc1ccc(O)cc13` [Levallorphan] gave a CC50 at 24 h of 28.6 µM. In the case of `CCCCCCCC(=O)OCCCCCC` [Hexyl octanoate], the CC50 at 24 h is reported as > 90 µM. For `FC(F)(F)c1ccc(Cl)cc1` [1-Chloro-4-(trifluoromethyl)benzene], the CC50 at 24 h was > 90 µM. For `c1ccc2c(c1)ccc1cc3c(ccc4ccccc43)cc12` [Dibenz(a,h)anthracene], the CC50 at 24 h was > 50 µM. In the case of `Cc1c(COC(=O)[C@@H]2[C@H](/C=C(\Cl)C(F)(F)F)C2(C)C)cccc1-c1ccccc1` (racemic) [Bifenthrin], the CC50 at 24 h is reported as > 90 µM. Work on `Nc1cc(Cl)c(O)c(Cl)c1` [4-Amino-2,6-dichlorophenol] yielded a CC50 at 24 h of 83.2 µM. With `CCCCCCCC(=O)OCC(COC(=O)CCCCCCC)OC(=O)CCCCCCC` [Tricaprylin] the CC50 at 24 h was > 90 µM. Work on `CCC(=O)C(CC(C)N(C)C)(c1ccccc1)c1ccccc1` (stereo not shown) [Methadone hydrochloride] yielded a CC50 at 24 h of 28.5 µM. For `CCCCCCCCNC` [N-Methyloctan-1-amine], the CC50 at 24 h was > 90 µM. With `CC(=O)Nc1ccc(C)cc1C` [N-(2,4-Dimethylphenyl)acetamide] the CC50 at 24 h was > 90 µM. In the case of `CC[C@H]1[C@@H]2C[C@H]3[C@@H]4N(C)c5ccccc5[C@]45C[C@@H]([C@H]2[C@H]5O)N3[C@@H]1O` [Ajmaline], the CC50 at 24 h is reported as > 20 µM. For `CC(=O)c1cccc([N+](=O)[O-])c1` [3-Nitroacetophenone], the CC50 at 24 h was > 90 µM. For `C=CC1=C(C(=O)O)N2C(=O)[C@@H](NC(=O)/C(=N\OCC(=O)O)c3csc(N)n3)[C@H]2SC1` [Cefixime], the CC50 at 24 h was > 20 µM. With `[O-][N+](=Nc1ccccc1)c1ccccc1` [Azoxybenzene] the CC50 at 24 h was > 90 µM. For `CC(CO)OC(C)CO` (stereo not shown) [Dipropylene glycol], the CC50 at 24 h was > 90 µM. For `O=C(Oc1ccccc1)c1cccc(C(=O)Oc2ccccc2)c1` [Diphenyl isophthalate], the CC50 at 24 h was > 100 µM. For `CCN(CC)CCOc1ccc2nc(N(C)C)sc2c1` [Diamthazole], the CC50 at 24 h was > 50 µM. Molecule `O=C1C=CC(=O)N1c1ccc(Cc2ccc(N3C(=O)C=CC3=O)cc2)cc1` [Bismaleimide] has a CC50 at 24 h of 6.41 µM. In the case of `Cc1ccc(Cl)c(Nc2ccccc2C(=O)O)c1Cl` [Meclofenamate sodium], the CC50 at 24 h is reported as > 50 µM. With `COc1ccc(/C=N/NC(=O)c2ccncc2)cc1OC` [Verazide] the CC50 at 24 h was > 50 µM. With `O=[N+]([O-])c1ccccc1CCO` [2-(2-Nitrophenyl)ethanol] the CC50 at 24 h was > 90 µM. In the case of `CC(C(=O)O)c1cccc(Oc2ccccc2)c1` (stereo not shown) [Fenoprofen calcium salt dihydrate], the CC50 at 24 h is reported as > 20 µM. For `CCN[C@H]1CN(CCCOC)S(=O)(=O)c2sc(S(N)(=O)=O)cc21` [Brinzolamide], the CC50 at 24 h was > 20 µM. With `O=c1oc2ccccc2c(O)c1Cc1c(O)c2ccccc2oc1=O` [Dicumarol] the CC50 at 24 h was > 20 µM. `O=C(Nc1ccccc1)OCC(CN1CCCCC1)OC(=O)Nc1ccccc1` (stereo not shown) [Diperodon hydrochloride] showed a CC50 at 24 h of 10.5 µM. Work on `CCOC(=O)[C@H](CCc1ccccc1)N[C@H]1CCc2ccccc2N(CC(=O)O)C1=O` [Benazepril hydrochloride] yielded a CC50 at 24 h of 5.95 µM. For `COc1ccc(C[C@@H]2c3cc(OC)c(OC)cc3CC[N@+]2(C)CCC(=O)OCCCCCOC(=O)CC[N@@+]2(C)CCc3cc(OC)c(OC)cc3[C@H]2Cc2ccc(OC)c(OC)c2)cc1OC` [Atracurium besylate], the CC50 at 24 h was > 20 µM. With `O=C(Cn1ccnc1[N+](=O)[O-])NCCO` [Etandazole] the CC50 at 24 h was > 50 µM. In the case of `CS(=O)(=O)c1cc(C(F)(F)F)ccc1C(=O)c1cnoc1C1CC1` [Isoxaflutole], the CC50 at 24 h is reported as > 90 µM. `CCCCCCCCCCCCCCCC[N+](C)(C)CCN(Cc1ccc(OC)cc1)c1ncccn1` [Thonzonium bromide] gave a CC50 at 24 h of 14.6 µM. `OC12N=C(c3ccccc3)SC1Cc1cc(Cl)ccc12` (stereo not shown) [HMR1426] gave a CC50 at 24 h of 56.9 µM. In the case of `CCCCN` [Butylamine], the CC50 at 24 h is reported as > 50 µM. Work on `COc1cc(N)c(Cl)cc1C(=O)NC1CCN(CCCOc2ccc(F)cc2)CC1OC` (stereo not shown) [Cisapride] yielded a CC50 at 24 h of 13 µM. In the case of `C=CCNC(N)=S` [Allylthiourea], the CC50 at 24 h is reported as > 90 µM. With `CCCCN(CCCC)C(=O)N(CCCC)CCCC` [1,1,3,3-Tetrabutylurea] the CC50 at 24 h was > 90 µM. For `Clc1c(Cl)c(Cl)c(Cl)c(Cl)c1Cl` [Hexachlorobenzene], the CC50 at 24 h was > 5 µM. In the case of `CC[C@H]1C[C@H]2[C@@H]3CCC4=CC(=O)CC[C@@H]4[C@H]3CC[C@]2(C)[C@H]1O` [Oxendolone], the CC50 at 24 h is reported as > 50 µM. For `CCOC(=O)c1ccc(C#Cc2ccc3c(c2)C(C)(C)CCS3)nc1` [Tazarotene], the CC50 at 24 h was > 50 µM. In the case of `CCCCN(CCCC)CCCC` [Tributylamine], the CC50 at 24 h is reported as > 90 µM. For `CCCCOC(=O)CCCCC(=O)OCCCC` [Dibutyl adipate], the CC50 at 24 h was > 90 µM. In the case of `O=c1oc2cc(O)ccc2c2oc3cc(O)ccc3c12` [Coumestrol], the CC50 at 24 h is reported as > 90 µM. For `Nc1cc(Cl)c(N=C2NCCN2)c(Cl)c1` [Apraclonidine hydrochloride], the CC50 at 24 h was > 50 µM. In the case of `NC(=O)C(Cl)(Cl)Cl` [2,2,2-Trichloroacetamide], the CC50 at 24 h is reported as > 90 µM. Molecule `COc1cc(NCc2ccc3nc(N)nc(N)c3c2C)cc(OC)c1OC` [Trimetrexate trihydrochloride] has a CC50 at 24 h of 8.81 µM. For `Clc1cc(Cl)c(Cl)cc1Cl` [1,2,4,5-Tetrachlorobenzene], the CC50 at 24 h was > 90 µM. Molecule `N#Cc1nc(Cl)c(Cl)c(Cl)c1Cl` [3,4,5,6-Tetrachloropyridine-2-carbonitrile] has a CC50 at 24 h of 3 µM. For `CC1(C)C(C=C(Cl)Cl)C1C(=O)OCc1cccc(Oc2ccccc2)c1` (stereo not shown) [Permethrin], the CC50 at 24 h was > 90 µM. With `O=C(O)C(Cl)Cl` [Dichloroacetic acid] the CC50 at 24 h was > 90 µM. With `Cc1ccc(/C=N/n2c(-c3ccccc3)csc2=S)cc1` [Fezatione] the CC50 at 24 h was > 50 µM. With `Cc1ccc2c(ccc3ccccc32)c1` [2-Methylphenanthrene] the CC50 at 24 h was > 90 µM. For `CC(C)(C)C(=O)OCC(=O)[C@H]1CC[C@H]2[C@@H]3CCC4=CC(=O)CC[C@]4(C)[C@H]3CC[C@]12C` [Desoxycorticosterone pivalate], the CC50 at 24 h was > 50 µM. In the case of `CCC(C)(C)C` [2,2-Dimethylbutane], the CC50 at 24 h is reported as > 100 µM. With `CCO[Si](CCC#N)(OCC)OCC` [3-(Triethoxysilyl)propionitrile] the CC50 at 24 h was > 90 µM. With `CCC[N+]1(C)CCCC1` [1-Methyl-1-propylpyrrolidinium bromide] the CC50 at 24 h was > 90 µM. For `Nc1c2c(nc3c1CCC3)CCCC2` [Ipidacrine hydrochloride hydrate], the CC50 at 24 h was > 50 µM. In the case of `CC(CCc1ccccc1)NC(C)C(O)c1ccc(O)cc1` (stereo not shown) [Nylidrin], the CC50 at 24 h is reported as 41.8 µM. With `O=C(OCC1CCC2OC2C1)C1CCC2OC2C1` (stereo not shown) [ECC] the CC50 at 24 h was > 100 µM. With `O=[N+]([O-])c1cccc(S(=O)(=O)NCCNS(=O)(=O)c2cccc([N+](=O)[O-])c2)c1` [Dinsed] the CC50 at 24 h was > 50 µM. In the case of `CC(=O)Oc1c(C)c(C)c2c(c1C)CC[C@@](C)(CCC[C@H](C)CCC[C@H](C)CCCC(C)C)O2` (racemic) [dl-alpha-Tocopheryl acetate], the CC50 at 24 h is reported as > 90 µM. With `O=C(O)[C@@H]1C[C@H](CP(=O)(O)O)CCN1` (racemic) [Selfotel] the CC50 at 24 h was > 50 µM. With `CN(C)CCCNCCCN(C)C` [N'-[3-(Dimethylamino)propyl]-N,N-dimethylpropane-1,3-diamine] the CC50 at 24 h was > 90 µM. For `CC(C)(O)C(=O)O` [2-Hydroxyisobutyric acid], the CC50 at 24 h was > 90 µM. In the case of `N=C(N)NCC1COc2ccccc2O1` (stereo not shown) [Guanoxan], the CC50 at 24 h is reported as > 50 µM.

Same assay, conditions: rat, gh3-tre-luc cells, AC50 (uM) modified / 1000, Tox21_110001=Tox21_111056; viability, 1 nM T3 present, 24 h
In the case of `C[C@]12CCC(=O)C[C@@H]1CC[C@@H]1[C@@H]2CC[C@]2(C)[C@@H](O)CC[C@@H]12` [5alpha-Dihydrotestosterone], the CC50 at 24 h is reported as > 50 µM.

Same assay, conditions: rat, gh3-tre-luc cells, AC50 (uM) modified / 1000, Tox21_110001=Tox21_111131; viability, 1 nM T3 present, 24 h
In the case of `C[C@]12C/C(=C/O)C(=O)C[C@@H]1CC[C@@H]1[C@@H]2CC[C@@]2(C)[C@H]1CC[C@]2(C)O` [Oxymetholone], the CC50 at 24 h is reported as > 50 µM.

Same assay, conditions: rat, gh3-tre-luc cells, AC50 (uM) modified / 1000, Tox21_110001=Tox21_113309; viability, 1 nM T3 present, 24 h
In the case of `COc1ccc2c(C(=O)c3ccc(Cl)cc3)c(C)n(CC(=O)O)c2c1` [Clometacine], the CC50 at 24 h is reported as > 50 µM.

Same assay, conditions: rat, gh3-tre-luc cells, AC50 (uM) modified / 1000, Tox21_110001=Tox21_200071; viability, 1 nM T3 present, 24 h
For `C[C@]12C/C(=C/O)C(=O)C[C@@H]1CC[C@@H]1[C@@H]2CC[C@@]2(C)[C@H]1CC[C@]2(C)O` [Oxymetholone], the CC50 at 24 h was 67.3 µM.

Same assay, conditions: rat, gh3-tre-luc cells, AC50 (uM) modified / 1000, Tox21_110001=Tox21_200987; viability, 1 nM T3 present, 24 h
In the case of `C[C@]12CCC(=O)C[C@@H]1CC[C@@H]1[C@@H]2CC[C@]2(C)[C@@H](O)CC[C@@H]12` [5alpha-Dihydrotestosterone], the CC50 at 24 h is reported as > 90 µM.

Same assay, conditions: rat, gh3-tre-luc cells, AC50 (uM) modified / 1000, Tox21_110001=Tox21_301886; viability, 1 nM T3 present, 24 h
Molecule `O=[N+]([O-])c1ccc(Nc2ccc(Nc3ccccc3)c(S(=O)(=O)O)c2)c([N+](=O)[O-])c1` [C.I. Acid Orange 3] has a CC50 at 24 h of 76.1 µM.

Same assay, conditions: rat, gh3-tre-luc cells, AC50 (uM) modified / 1000, Tox21_110001=Tox21_302231; viability, 1 nM T3 present, 24 h
With `O=c1c2ccccc2c(=O)c2c1cc(Cl)c1[nH]c3c([nH]c12)c(Cl)cc1c(=O)c2ccccc2c(=O)c13` [D&C Blue No. 9] the CC50 at 24 h was > 90 µM.

Same assay, conditions: rat, gh3-tre-luc cells, AC50 (uM) modified / 1000, Tox21_110001=Tox21_302319; viability, 1 nM T3 present, 24 h
`O=S(=O)(O)C(F)(F)C(F)(F)C(F)(F)C(F)(F)C(F)(F)C(F)(F)C(F)(F)C(F)(F)F` [Lithium perfluorooctanesulfonate] gave a CC50 at 24 h of 52.3 µM.

Same assay, conditions: rat, gh3-tre-luc cells, AC50 (uM) modified / 1000, Tox21_110001=Tox21_303655; viability, 1 nM T3 present, 24 h
In the case of `C[C@]12CCC(=O)C[C@@H]1CC[C@@H]1[C@@H]2CC[C@]2(C)[C@@H](O)CC[C@@H]12` [5alpha-Dihydrotestosterone], the CC50 at 24 h is reported as > 60 µM.
